For series [1], the target named is T1, MCR (α-methylacyl-CoA racemase from Mycobacterium tuberculosis) (Mycobacterium tuberculosis, UniProt O06543). Kind of series: Jump-dilution experiment (reversibility of inhibition). The class given is biochemical. Details: made in house. The settings on record: 12-min time-course, inhibitor at 6x or 0.06x the IC50.
The target in series [2] is T1, MCR (α-methylacyl-CoA racemase from Mycobacterium tuberculosis). Kind of series: Kinetic assay (Ki and mode of inhibition, colorimetric assay). The class given is biochemical. Further details: made in house. As to the method: Data was collected as previously described using ibuprofenoyl-CoA 1 at 0, 3.2, 10, and 32 μM, 3.12 nM MCR, and 50.2 to 576 μM substrate (final concentrations) in 50 mM NaH2PO4-NaOH, 100 mM NaCl, and 1 mM EDTA, pH 7.4 and 3% (v/v) DMSO. Enzyme and inhibitor stock solutions were pre-incubated together for 10 min before initiating the assay. Rates were determined using ICEKAT ([46], [47]), with logarithmic fit of the data and correction of rates for delays between reaction initiation and first read. Data was analyzed using SigmaPlot 15.0 using Simple EK and the enzyme kinetics macro, with the correct inhibition model selected using graphs (Fig. S19, A–G) and statistical ranking of models. The determined Ki value is the mean ± SEM for three independent repeats.

For a further series, the target named is human AMACR 1A. The settings on record: cited from earlier work.
Series [3] addresses T1, MCR (α-methylacyl-CoA racemase from Mycobacterium tuberculosis). Kind of series: Colorimetric inhibition assay, dose-response curves. The settings on record: for Max % (coefficient): fitted maximum % activity; for Min % (coefficient): fitted minimum % activity; for Hillslope (coefficient): 4-parameter logistic fit; for pIC50 lower than expected based on LogP: from plot of pIC50 vs. calculated LogP.

Series [4] has the same target. In words: Deuterium-exchange assay (substrate α-proton exchange, 1H NMR). The settings on record: 100 μM acyl-CoA, 2.34 nM MCR, ca. 85% 2H2O, 30 °C. Further details: made in house. The series is classed as biochemical. As to the method:
Exchange of substrate α-protons was assessed using the deuterium-exchange assay as previously described ([19], [32]). Assay mixtures contained 55 ng (2.34 nM) of active or heat-inactivated MCR, 100 μM acyl-CoA, 50 mM NaH2PO4-NaOH, pH 7.4 and ca. 85% (v/v) ^2H2O in a total volume of 600 μl. Fenoprofenoyl-CoA 2 was used as a positive control. Reactions were initiated by the addition of enzyme, and reaction mixtures were incubated at 30 °C for 1 h before quenching at 55 °C for 10 min. NMR data were collected on a Bruker Avance Neo operating at 500.13 MHz for proton at 25 °C. Solvent suppression was achieved using a pre-saturation experiment. Typically, 128 transients were recorded. Data were processed using Topspin 4.0.7. Analysis of deuterium-exchange is based upon changes in intensity of either the substrate methine protons in the α-position or by the effects of the loss of those α-proton on a coupled methyl group.

The subject of a further series is MCR. Details: method as in PMID 26759836. The conditions noted are these: cited from earlier work.
The mark [5] stands for this setting: LogIC50 (coefficient), individual independent repeats 1-3, 4-parameter logistic fit of mean % activity (2 technical repeats).
Where [6] appears, read: individual independent repeats 1-3.
[7] abbreviates: pIC50, mean ± SEM, n = 3, colorimetric assay, 96 μM substrate, 3.12 nM MCR, 10 min pre-incubation.

Structures are written as SMILES. Values joined by “and” are separate entries in the source; they are usually repeats but may differ in a detail not shown here. Identical values can stand only once.

The values below come from article PMC12246613, “Molecular basis of acyl-CoA ester recognition by α-methylacyl-CoA racemase from Mycobacterium tuberculosis” (The Journal of Biological Chemistry, 2025).

T1 sequence (O06543 whole entry): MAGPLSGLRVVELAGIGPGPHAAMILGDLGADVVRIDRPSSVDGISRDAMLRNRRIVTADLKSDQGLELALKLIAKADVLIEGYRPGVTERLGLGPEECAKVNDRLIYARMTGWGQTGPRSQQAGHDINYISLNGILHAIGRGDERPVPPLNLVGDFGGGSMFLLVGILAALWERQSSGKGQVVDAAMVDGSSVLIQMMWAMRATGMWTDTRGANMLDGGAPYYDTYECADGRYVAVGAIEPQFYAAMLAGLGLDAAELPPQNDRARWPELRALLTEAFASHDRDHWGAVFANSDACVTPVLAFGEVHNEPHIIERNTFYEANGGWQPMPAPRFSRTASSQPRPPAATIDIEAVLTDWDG

Turning to `CC(C)Cc1ccc(C(C)C(=O)SCCNC(=O)CCNC(=O)C(O)C(C)(C)COP(=O)(O)OP(=O)(O)OCC2OC(n3cnc4c(N)ncnc43)C(O)C2OP(=O)(O)O)cc1` (racemic) [compound 1, ±-Ibuprofenoyl-CoA], in series [1], the reversibility of inhibition entry was “reversible inhibition”. For the same molecule, the Ki – broadly, a dissociation constant, usually derived from enzyme kinetics or from competition with a known ligand – is 3.06 µM and 2.44 µM and 3.62 µM in series [2] (individual repeats 1-3, inhibitor 0, 3.2, 10, 32 μM, 50.2 to 576 μM substrate); 3.04 ± 0.34 µM in series [2] (mean ± SEM, n = 3, competitive inhibition model); 0.06 ± 0.00478 µM on human AMACR 1A (human AMACR 1A, mean ± SEM, n = 1). Also, the mode of inhibition result in series [2] (Lineweaver-Burk plot and statistical ranking of models) was “competitive inhibition”. Also, the IC50 – broadly, the concentration that gives 50% inhibition – in series [3] (setting [5]) was 10.9 µM and 8.94 µM and 7.48 µM; in series [3] (setting [7]) it was 8.91 µM. Also, the “potency on MCR relative to human AMACR (fold less potent)” value in series [3] (MCR versus human AMACR) was about 20 fold. The “Max % (coefficient)” value in series [3] (setting [6]) is 105.5482% and 98.8641% and 101.2444%. Also, the “Min % (coefficient)” value in series [3] (setting [6]) is 2.6168% and 2.9187% and 2.6510%. Also, the “Hillslope (coefficient)” value in series [3] (setting [6]) was -0.9604 and -0.9180 and -0.9734.
For the molecule `CC(C(=O)SCCNC(=O)CCNC(=O)C(O)C(C)(C)COP(=O)(O)OP(=O)(O)OCC1OC(n2cnc3c(N)ncnc32)C(O)C1OP(=O)(O)O)c1cccc(Oc2ccccc2)c1` (racemic) [compound 2, ±-Fenoprofenoyl-CoA], the relative inhibitor potency result with human AMACR 1A (human AMACR) is “most potent inhibitor”. The IC50 in series [3] (setting [5]) was 20.4 µM and 11.7 µM and 14.2 µM. For the same molecule, in series [3] (setting [6]), the “Max % (coefficient)” value is 99.3868% and 110.2399% and 93.4385%; the “Min % (coefficient)” value was -1.0173% and 2.2137% and -0.7388%; the “Hillslope (coefficient)” value is -0.8331 and -0.7292 and -0.8187. The molecule further showed an IC50 in series [3] (setting [7]) of 15.1 µM.
As for `CC(C(=O)SCCNC(=O)CCNC(=O)C(O)C(C)(C)COP(=O)(O)OP(=O)(O)OCC1OC(n2cnc3c(N)ncnc32)C(O)C1OP(=O)(O)O)c1ccc(-c2ccccc2)c(F)c1` (racemic) [compound 4, ±-Flurbiprofenoyl-CoA], the IC50 in series [3] (setting [5]) was 13.1 µM and 21.1 µM and 21.2 µM. For the same molecule, in series [3] (setting [6]), the “Max % (coefficient)” value was 97.7981% and 95.9188% and 94.6575%; the “Min % (coefficient)” value is 1.7221% and 0.8368% and 2.1053%; the “Hillslope (coefficient)” value was -0.9708 and -1.0277 and -1.0055. In series [3] (setting [7]), this molecule gave an IC50 of 18.2 µM.
For the molecule `CC(C(=O)SCCNC(=O)CCNC(=O)C(O)C(C)(C)COP(=O)(O)OP(=O)(O)OCC1OC(n2cnc3c(N)ncnc32)C(O)C1OP(=O)(O)O)c1cccc(C(=O)c2ccccc2)c1` (centres unmarked) [compound 3, S-Ketoprofenoyl-CoA], in series [3] (setting [5]), the IC50 was 31.5 µM and 30.8 µM. Besides, in series [3] (setting [6]), the “Max % (coefficient)” value was 100.4116% and 96.3493% and 103.0106%; the “Min % (coefficient)” value was -9.0253% and -2.7332% and -8.7722%; the “Hillslope (coefficient)” value is -0.6349 and -0.7776 and -0.7146. Besides, the “pIC50 lower than expected based on LogP” value in series [3] is recorded as “approximately 0.3”. This molecule also showed an IC50 in series [3] (setting [7]) of 31.6 µM.
On to `COc1ccc2cc(C(C)C(=O)SCCNC(=O)CCNC(=O)C(O)C(C)(C)COP(=O)(O)OP(=O)(O)OCC3OC(n4cnc5c(N)ncnc54)C(O)C3OP(=O)(O)O)ccc2c1` (centres unmarked) [compound 5, S-Naproxenoyl-CoA], for which the IC50 in series [3] (setting [5]) is 19.5 µM and 15.6 µM and 15.5 µM. In series [3] (setting [6]), the “Max % (coefficient)” value is 99.5824% and 102.2413% and 102.0390%; the “Min % (coefficient)” value is -0.6400% and -0.5309% and -2.7274%; the “Hillslope (coefficient)” value was -0.7858 and -0.8072 and -0.6833. For the same molecule, the “pIC50 lower than expected based on LogP” value in series [3] is on record as “approximately 0.3”. Besides, in series [3] (setting [7]), half-maximal inhibition (IC50) required 17 µM.
On to `CCCCCCCCC(C)C(=O)SCCNC(=O)CCNC(=O)[C@H](O)C(C)(C)COP(=O)(O)OP(=O)(O)OC[C@H]1O[C@@H](n2cnc3c(N)ncnc32)[C@H](O)[C@@H]1OP(=O)(O)O` (some centres unmarked) [compound 6, S-2-Methyldecanoyl-CoA], for which, in series [3] (setting [5]), the IC50 is 62.8 µM and 67.4 µM and 46.5 µM. In series [3] (setting [6]), the “Max % (coefficient)” value was 104.1285% and 101.8704% and 101.0137%; the “Min % (coefficient)” value was 10.2466% and 13.4630% and 9.4607%; the “Hillslope (coefficient)” value is -1.5837 and -2.4923 and -1.4587. In addition, in series [3] (setting [7]), half-maximal inhibition (IC50) was put at 58.9 µM.
The molecule `CCCCCCCCCC(=O)SCCNC(=O)CCNC(=O)C(O)C(C)(C)COP(=O)(O)OP(=O)(O)OCC1OC(n2cnc3c(N)ncnc32)C(O)C1OP(=O)(O)O` (centres unmarked) [compound 7, Decanoyl-CoA] had an IC50 in series [3] (setting [7]) of about 100 µM.
Still for that read-out and setting: the same measure for `CCCCCCCC(=O)SCCNC(=O)CCNC(=O)C(O)C(C)(C)COP(=O)(O)OP(=O)(O)OCC1OC(n2cnc3c(N)ncnc32)C(O)C1OP(=O)(O)O` (centres unmarked) [compound 8, Octanoyl-CoA]: about 100 µM; for `CCCCCC(=O)SCCNC(=O)CCNC(=O)C(O)C(C)(C)COP(=O)(O)OP(=O)(O)OCC1OC(n2cnc3c(N)ncnc32)C(O)C1OP(=O)(O)O` (centres unmarked) [compound 9, Hexanoyl-CoA]: about 316 µM; for `CCCC(=O)SCCNC(=O)CCNC(=O)C(O)C(C)(C)COP(=O)(O)OP(=O)(O)OCC1OC(n2cnc3c(N)ncnc32)C(O)C1OP(=O)(O)O` (centres unmarked) [compound 10, n-Butanoyl-CoA]: about 562 µM.
`CC(=O)SCCNC(=O)CCNC(=O)C(O)C(C)(C)COP(=O)(O)OP(=O)(O)OCC1OC(n2cnc3c(N)ncnc32)C(O)C1OP(=O)(O)O` (centres unmarked) [compound 11, Acetyl-CoA] had a concentration for half-maximal inhibition (IC50) in series [3] (setting [7]) of about 1000 µM.
For the molecule `CC(C)C(=O)SCCNC(=O)CCNC(=O)C(O)C(C)(C)COP(=O)(O)OP(=O)(O)OCC1OC(n2cnc3c(N)ncnc32)C(O)C1OP(=O)(O)O` (centres unmarked) [compound 12, Isobutanoyl-CoA], the α-proton exchange entry in series [4] is listed as “significant α-proton exchange”. In series [3] (setting [7]), the IC50 is about 1000 µM.
Consider `CC(C)(COP(=O)(O)OP(=O)(O)OC[C@H]1O[C@@H](n2cnc3c(N)ncnc32)[C@H](O)[C@@H]1OP(=O)(O)O)[C@@H](O)C(=O)NCCC(=O)NCCSC(=O)C(c1ccccc1)c1ccccc1` [diphenylacetyl-CoA], for which the α-proton exchange entry in the series on MCR is listed as “did not undergo α-proton exchange”.
